biological target: human ER beta (Homo sapiens, UniProt Q92731); assay: ER beta FP binding assay (fluorescence polarisation, Fluormone EL Red ligand); conditions: 6 nM ERbeta protein, 1.5 nM ER FP ligand, 3 hours at room temperature; read-out: pIC50 in the ER beta FP binding assay (converted)
Procedure: Assay Buffer (AB) (50 mM MOPES pH 7.5, 50 mM NaF, 2.5 mM CHAPs), in deionized water, 5 mM 1,4 dithiothreitol (DTT) added on day of the experiment. The appropriate amount of AB was placed in a plastic tube, adding solid DTT before the assay was run. AB with DTT was distributed to plastic tubes. We have found use of plastic to be important vs glass. A final concentration of 6 nM ERbeta protein was added to the tube followed by gentle inversion. A final concentration of 1.5 nM ER FP ligand (Fluormone™ EL Red 200 nM in 20 mM Tris, 90% Methanol purchased from Invitrogen catalogue no P3030) was added to the same tube followed by gentle inversion. This was allowed to sit for 5-10 minutes before adding it to the 384 assay plate. Similar protocol was used for ERalpha with a final concentration of 4 nM ERalpha and 1.5 nM ER FP ligand.
384 plates containing test compounds dissolved in 100% DMSO at 1 mM were serially diluted (1:3) by a Beckman FX. Serial diluted test compounds were added, 0.1 μL, to the assay plates with a maximum final concentration of 10 uM. Once the assay plates were ready, 10 μL of the above reagents were added to the appropriate set of plates with the Thermo combi. These plates were then sealed and place at room temperature for 3 hours.
The plates were then placed on the Molecular Devices Analyst and counted (excitation 535 nm, emission 590 nm with a 561 Dichroic mirror). Data was normalized to control then fitted to a non-linear least squares algorithm (see below).
pIC50 Calculation y=a+((b−a)/(1+(10^x/10^c){circumflex over (0)}d)
The amino acid sequence of human ER beta used in this assay is […]

Chain of human ER beta (Q92731 with tags, fused parts or gaps): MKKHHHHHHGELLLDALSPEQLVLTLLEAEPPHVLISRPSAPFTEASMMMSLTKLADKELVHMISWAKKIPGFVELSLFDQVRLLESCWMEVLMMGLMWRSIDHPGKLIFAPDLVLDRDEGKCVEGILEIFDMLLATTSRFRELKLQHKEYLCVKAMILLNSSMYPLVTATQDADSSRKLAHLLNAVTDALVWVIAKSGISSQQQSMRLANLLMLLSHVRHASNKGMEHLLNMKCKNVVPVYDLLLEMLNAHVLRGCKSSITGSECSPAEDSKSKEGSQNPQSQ

IC50, < 10 nM:
Oc1ccc(-n2ccc3c(O)c(F)ccc32)cc1F [Example 5, 5-fluoro-1-(3-fluoro-4-hydroxyphenyl)-1H-indol-4-ol]
Oc1ccc(-n2ccc3c(O)ccc(Cl)c32)cc1F [Example 7, 7-Chloro-1-(3-fluoro-4-hydroxyphenyl)-1H-indol-4-ol]
N#Cc1cc(O)c2ccn(-c3ccc(O)c(F)c3)c2c1 [Example 8, 1-(3-Fluoro-4-hydroxyphenyl)-4-hydroxy-1H-indole-6-carbonitrile]
Oc1ccc(-n2ccc3c(O)c(F)cc(Br)c32)cc1F [Example 4, 7-bromo-5-fluoro-1-(3-fluoro-4-hydroxyphenyl)-1H-indol-4-ol]
Oc1ccc(-n2ccc3c(O)cc(F)cc32)cc1F [Example 9, 6-Fluoro-1-(3-fluoro-4-hydroxyphenyl)-1H-indol-4-ol]
Oc1ccc(-n2ccc3c(O)cc(F)cc32)cc1 [Example 10, 6-fluoro-1-(4-hydroxyphenyl)-1H-indol-4-ol]

Reference: patent publication US7956083B2, “Compounds” (Glaxo Group Limited, priority 2008, dated 2011)
